Key:
[1] = system: study subjects; experiment: Peroral treatment of study subjects with tetrahydrocarbazole compounds: chemical (hormonal) castration (Examples 4-9); assay type: in vivo, human; conditions: 50 to 150 mg perorally daily as a single dose, schemes of 6 weeks to 6 months
Method: In the course of the present invention, the terms “hormone” and “hormonal” within for instance the terms “hormone castration”, “chemical (hormonal) castration” or “hormone withdrawal symptoms” refer to follicle stimulating hormone (FSH), luteinizing hormone (LH) and/or testosterone. Preferably, chemical (hormonal) castration is a testosterone castration and refers to a testosterone blood level of equal or below 1.2 ng/mL, preferably 0.5 ng/mL.
Study subjects are treated with compound (76) with the following doses according to the following administration schemes: • in a 3 month trial, 75 mg or 150 mg compound (76) administered perorally daily as a single dose on day 2-7 of the menstrual cycle • in a 3 months trial, 75 mg, 100 mg or 150 mg compound (76) administered perorally daily as a single dose on day 2-7 of the menstrual cycle followed by a 3 months treatment-free period • in a 6 months trial, 75 mg or 150 mg compound (76) administered perorally daily as a single dose • 50 mg or 150 mg per compound (76) administered daily as a single dose over 42 days (6 weeks)
Study subjects are treated with compound (68) with the following doses according to the following administration schemes: • in a 3 month trial, 75 mg or 150 mg compound (68) administered perorally daily as a single dose on day 2-7 of the menstrual cycle • in a 3 months trial, 75 mg, 100 mg or 150 mg compound (68) administered perorally daily as a single dose on day 2-7 of the menstrual cycle followed by a 3 months treatment-free period • in a 6 months trial, 75 mg or 150 mg compound (68) administered perorally daily as a single dose • 50 mg or 150 mg per compound (68) administered daily as a single dose over 42 days (6 weeks)
Study subjects are treated with compound 36 with the following doses according to the following administration schemes: • in a 3 month trial, 75 mg or 150 mg compound 36 administered perorally daily as a single dose on day 2-7 of the menstrual cycle • in a 3 months trial, 75 mg, 100 mg or 150 mg compound 36 administered perorally daily as a single dose on day 2-7 of the menstrual cycle followed by a 3 months treatment-free period • in a 6 months trial, 75 mg or 150 mg compound 36 administered perorally daily as a single dose • 50 mg or 150 mg per compound 36 administered daily as a single dose over 42 days (6 weeks)
Study subjects are treated with compound 37 with the following doses according to the following administration schemes: • in a 3 month trial, 75 mg or 150 mg compound 37 administered perorally daily as a single dose on day 2-7 of the menstrual cycle • in a 3 months trial, 75 mg, 100 mg or 150 mg compound 37 administered perorally daily as a single dose on day 2-7 of the menstrual cycle followed by a 3 months treatment-free period • in a 6 months trial, 75 mg or 150 mg compound 37 administered perorally daily as a single dose • 50 mg or 150 mg per compound 37 administered daily as a single dose over 42 days (6 weeks)
Study subjects are treated with compound 52 with the following doses according to the following administration schemes: • in a 3 month trial, 75 mg or 150 mg compound 52 administered perorally daily as a single dose on day 2-7 of the menstrual cycle • in a 3 months trial, 75 mg, 100 mg or 150 mg compound 52 administered perorally daily as a single dose on day 2-7 of the menstrual cycle followed by a 3 months treatment-free period • in a 6 months trial, 75 mg or 150 mg compound 52 administered perorally daily as a single dose • 50 mg or 150 mg per compound 52 administered daily as a single dose over 42 days (6 weeks)

[2] = system: study subjects; experiment: Peroral treatment of study subjects with tetrahydrocarbazole compounds: nocturia frequency, urgency to urinate, frequency of emptying (Examples 4-9); assay type: in vivo, human; conditions: 50 to 150 mg perorally daily as a single dose, schemes of 6 weeks to 6 months

Q: For CCC(C)[C@H](NC(=O)Cc1ccccc1F)C(=O)N[C@]1(C(=O)N[C@H](C(=S)NCC2CCOCC2)C(C)CC)CCc2[nH]c3c(C(F)(F)F)cccc3c2C1 (stereo partly drawn) [Compound 52, (R)-3-{(S)-2-[2-(2-Fluoro-phenyl)-acetylamino]-3-methyl-pentanoylamino}-8-trifluoromethyl-2,3,4,9-tetrahydro-1H-carbazole-3-carboxylic acid {(S)-2-methyl-1-[K(tetrahydro-pyran-4-ylmethyl)-thiocarbamoyl]-butyl}-amide], which “chemical (hormonal) castration” value [1] is on record?
A: Its value is “successfully prevented”.

Q: And the “nocturia frequency, urgency to urinate and/or frequency of emptying compared to placebo” value [2]?
A: The value was “decrease”.

Q: What does the source list for CCC(C)[C@H](NC(=O)Cc1ccccc1F)C(=O)N[C@]1(C(=O)N[C@H](C(=O)NNc2ccccc2)C(C)CC)CCc2[nH]c3c(C(F)(F)F)cccc3c2C1 (stereo partly drawn) [Compound 144, (R)-3-{(S)-2-[2-(2-Fluoro-phenyl)-acetylamino]-3-methyl-pentanoylamino}-8-trifluoromethyl-2,3,4,9-tetrahydro-1H-carbazole-3-carboxylic acid [(S)-2-methyl-1-(N′-phenyl-hydrazinocarbonyl)-butyl]-amide]?
A: chemical (hormonal) castration [1]: successfully prevented; nocturia frequency, urgency to urinate and/or frequency of emptying compared to placebo [2]: decrease

Q: What does the source list for CCC(C)[C@H](NC(=O)Cc1ccccc1F)C(=O)N[C@]1(C(=O)N[C@H](C(N)=S)C(C)CC)CCc2[nH]c3c(Cl)cc(F)cc3c2C1 (stereo partly drawn) [compound (68), (R)-8-chloro-6-fluoro-3-{(S)-2-[2-(2-fluorophenyl)acetylamino]-3-methyl-pentanoylamino}-2,3,4,9-tetrahydro-1H-carbazole-3-carboxylic acid ((S)-2-methyl-1-thiocarbamoylbutyl)amide]?
A: chemical (hormonal) castration [1]: successfully prevented; nocturia frequency, urgency to urinate and/or frequency of emptying compared to placebo [2]: decrease

Q: For CCC(C)[C@H](NC(=O)Cc1ccccc1F)C(=O)N[C@]1(C(=O)N[C@H](C(N)=S)C(C)CC)CCc2[nH]c3c(C(F)(F)F)cccc3c2C1 (stereo partly drawn) [compound (76), (R)-3-{(S)-2-[2-(2-fluorophenyl)acetylamino]-3-methyl-pentanoylamino}-8-trifluoromethyl-2,3,4,9-tetrahydro-1H-carbazole-3-carboxylic acid ((S)-2-methyl-1-thiocarbamoylbutyl)amide], which “chemical (hormonal) castration” value [1] is on record?
A: Its value is “successfully prevented”.

Q: What about the “nocturia frequency, urgency to urinate and/or frequency of emptying compared to placebo” value [2] of the same compound?
A: Its value is “decrease”.

— patent US20090075937A1, “LHRH ANTAGONISTS FOR THE TREATMENT OF LOWER URINARY TRACT SYMPTOMS” (AETERNA ZENTARIS GmbH, priority 2007, published 2009)
